Assay results from US9447385B2, “Butanol dehydrogenase enzyme from the bacterium Achromobacter xylosoxidans” (BUTAMAX ADVANCED BIOFUELS LLC, priority 2008, dated 2016).
Read-outs that look alike come from different tables or passages of the source.

Legend:
[1] = system: A. xylosoxidans butanol dehydrogenase; details: alcohol substrate (oxidation); 35° C., TRIS buffer pH 8.5, 3 mM NAD+; crude enzyme from A. xylosoxidans
Description: Reactions with alcohol substrates were performed at 35° C. in TRIS buffer, pH 8.5, containing 3 mM NAD^+ and varying concentrations of alcohol. Reactions with ketone or aldehyde substrates were performed at 35° C. with 50 mM MES buffer, pH 6.0, 200 μM NADH and varying concentrations of the ketone or aldehyde. Crude enzyme preparations were used, obtained either from A. xylosoxidans or recombinant E. coli strain Mach1/pTrc99a::sadB (described in Example 3 below).

[2] = system: butanol dehydrogenase from A. xylosoxidans; test: Activity stain on non-denaturing polyacrylamide gel (MTT/PMS coupled); type: biochemical, Achromobacter xylosoxidans; details: NAD+, MTT, PMS
From the text: The purified enzyme and molecular weight standards were subjected to electrophoresis using non-denaturing polyacrylamide gels (8-16% Tris-Glycine gradient gel, Invitrogen). After electrophoresis, the gels were removed and stained for protein (Simply Blue Protein Stain, Invitrogen) or stained for activity by coupling the conversion of 1-butanol plus NAD^+ to butyraldehyde plus NADH with the conversion of 3 [4,5-dimethylthiazol-2-yl]-2,5-diphenyltetrazolium bromide (MTT) to a deeply colored formazan, using phenazine methosulfate (PMS) as mediator (Tang et al., J. Bacteriol. 140, 182 (1997)). The activity solution contained 0.5 mg PMS, 5 mg MTT, 20 mg NAD^+ and 1 mL of 1-butanol in a total volume of 25 mL.

[3] = system: A. xylosoxidans butanol dehydrogenase; test: Kinetic characterization of butanol dehydrogenase, reduction of ketone or aldehyde substrates; type: biochemical, Achromobacter xylosoxidans; details: 35° C., 50 mM MES pH 6.0, 200 μM NADH
From the text: The secondary alcohol dehydrogenase (sadB) from Achromobacter xylosoxidans was cloned into the vector pTrc99a (Amann et al., Gene 69(2):301-315 (1988)). The coding region (SEQ ID NO: 1) was amplified using standard conditions from A. xylosoxidans genomic DNA, prepared using a Gentra Puregene kit (Gentra Systems, Inc., Minneapolis, Minn.; catalog number D-5500A) following the recommended protocol for gram negative organisms using forward and reverse primers N473 and N469 (SEQ ID NOs: 24 and 23). The PCR product was TOPO-Blunt cloned into pCR4 BLUNT (Invitrogen) to produce pCR4Blunt::sadB, which was used to transform E. coli Mach-1 cells. Plasmid DNA was subsequently isolated from four clones, and the sequence verified. The plasmid was then digested with EcoRI, releasing the sadB fragment, which was ligated with EcoRI-digested pTrc99a to generate pTrc99a::sadB. The E. coli Mach 1 cells were transformed with the plasmid and the resulting transformant was named Mach1/pTrc99a::sadB.

[4] = ketone or aldehyde substrate (reduction), crude enzyme from A. xylosoxidans
[5] = aldehyde substrate (reduction), crude enzyme from E. coli strain Mach1/pTrc99a

Molecule | Km [1] | Vmax [1] | activity staining of the enzyme band with the alcohol as substrate [2] | Km [3, 4] | Vmax [3, 4] | other results
1-Butanol | 4600 µM | 0.02 µmol/min |  |  |  | 
CCC(C)O (stereo not drawn) [2-Butanol] | 300 µM | 0.22 µmol/min | active |  |  | 
CCC(C)=O [2-Butanone] |  |  |  | 500 µM | 0.35 µmol/min | 
CCCC=O [Butyraldehyde] |  |  |  | 7300 µM | 0.67 µmol/min | 
CC(C)C=O [Isobutyraldehyde] |  |  |  |  |  | Km [3, 5]: 1900 µM; Vmax [3, 5]: 1.1 µmol/min
CC(C)CO [isobutanol] |  |  | active |  |  | 
